Results reported in PubChem BioAssay AID504473 (NMMLSC, 2011).
Active and inactive are the calls of the source.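 How the source made its calls: active means GFP ratio to DMSO above 1.5 or below 0.66; inactive means the rest.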

How the values were obtained:
Assay in all cases: expression changes of rapamycin-responsive GFP fusion proteins, S. cerevisiae, GFP-tagged clone panel, flow cytometry (AID 504473);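 further: median GFP fluorescence of the cells measured by high-throughput flow cytometry; test concentration not given here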
[1] = target: General amino acid permease AGP1 (Saccharomyces cerevisiae S288c) (UniProt P25376); details: S. cerevisiae GFP-tagged strains, 3 h, YCL025C
Sequence of General amino acid permease AGP1 (Saccharomyces cerevisiae S288c) (P25376 whole entry, looked up): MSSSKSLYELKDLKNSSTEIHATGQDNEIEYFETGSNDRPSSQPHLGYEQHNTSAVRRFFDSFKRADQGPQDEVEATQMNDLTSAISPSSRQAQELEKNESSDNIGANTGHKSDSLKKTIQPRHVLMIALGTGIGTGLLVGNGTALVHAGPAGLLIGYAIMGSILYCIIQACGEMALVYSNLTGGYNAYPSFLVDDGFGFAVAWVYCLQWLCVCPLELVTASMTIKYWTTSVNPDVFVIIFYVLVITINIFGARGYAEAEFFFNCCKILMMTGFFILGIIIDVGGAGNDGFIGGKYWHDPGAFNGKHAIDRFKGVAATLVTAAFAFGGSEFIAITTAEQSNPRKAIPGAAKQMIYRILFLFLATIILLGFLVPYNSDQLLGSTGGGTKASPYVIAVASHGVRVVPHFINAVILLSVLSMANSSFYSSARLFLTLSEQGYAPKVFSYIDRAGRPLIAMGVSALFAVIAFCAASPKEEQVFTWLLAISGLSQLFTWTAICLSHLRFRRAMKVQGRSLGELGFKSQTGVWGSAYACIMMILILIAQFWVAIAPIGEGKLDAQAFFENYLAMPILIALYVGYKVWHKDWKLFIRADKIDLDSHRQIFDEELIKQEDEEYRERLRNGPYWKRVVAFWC

YAL060W = details: S. cerevisiae GFP-tagged strains, 3 h
YAL061W = details: S. cerevisiae GFP-tagged strains, 3 h
YBL087C = details: S. cerevisiae GFP-tagged strains, 3 h
YBR072W = details: S. cerevisiae GFP-tagged strains, 3 h
YBR139W = details: S. cerevisiae GFP-tagged strains, 3 h
YBR208C = details: S. cerevisiae GFP-tagged strains, 3 h
YBR248C = details: S. cerevisiae GFP-tagged strains, 3 h
YCL064C = details: S. cerevisiae GFP-tagged strains, 3 h
YCR002C = details: S. cerevisiae GFP-tagged strains, 3 h
YCR005C = details: S. cerevisiae GFP-tagged strains, 3 h
YDL130W = details: S. cerevisiae GFP-tagged strains, 3 h
YDL204W = details: S. cerevisiae GFP-tagged strains, 3 h
YDL205C = details: S. cerevisiae GFP-tagged strains, 3 h
YDR070C = details: S. cerevisiae GFP-tagged strains, 3 h
YDR382W = details: S. cerevisiae GFP-tagged strains, 3 h
YDR399W = details: S. cerevisiae GFP-tagged strains, 3 h
YDR453C = details: S. cerevisiae GFP-tagged strains, 3 h
YEL007W = details: S. cerevisiae GFP-tagged strains, 3 h
YEL060C = details: S. cerevisiae GFP-tagged strains, 3 h
YEL063C = details: S. cerevisiae GFP-tagged strains, 3 h
YEL071W = details: S. cerevisiae GFP-tagged strains, 3 h
YER081W = details: S. cerevisiae GFP-tagged strains, 3 h
YER117W = details: S. cerevisiae GFP-tagged strains, 3 h
YER151C = details: S. cerevisiae GFP-tagged strains, 3 h
YER156C = details: S. cerevisiae GFP-tagged strains, 3 h
YFR031C-A = details: S. cerevisiae GFP-tagged strains, 3 h
YFR053C = details: S. cerevisiae GFP-tagged strains, 3 h
YGL036W = details: S. cerevisiae GFP-tagged strains, 3 h
YGL062W = details: S. cerevisiae GFP-tagged strains, 3 h
YGL135W = details: S. cerevisiae GFP-tagged strains, 3 h
YGL147C = details: S. cerevisiae GFP-tagged strains, 3 h
YGR019W = details: S. cerevisiae GFP-tagged strains, 3 h
YGR034W = details: S. cerevisiae GFP-tagged strains, 3 h
YGR088W = details: S. cerevisiae GFP-tagged strains, 3 h
YGR121C = details: S. cerevisiae GFP-tagged strains, 3 h
YHL021C = details: S. cerevisiae GFP-tagged strains, 3 h
YHR018C = details: S. cerevisiae GFP-tagged strains, 3 h
YHR087W = details: S. cerevisiae GFP-tagged strains, 3 h
YHR141C = details: S. cerevisiae GFP-tagged strains, 3 h
YHR144C = details: S. cerevisiae GFP-tagged strains, 3 h
YHR203C = details: S. cerevisiae GFP-tagged strains, 3 h
YIL043C = details: S. cerevisiae GFP-tagged strains, 3 h
YIL051C = details: S. cerevisiae GFP-tagged strains, 3 h
YIL052C = details: S. cerevisiae GFP-tagged strains, 3 h
YIL066C = details: S. cerevisiae GFP-tagged strains, 3 h
YIL069C = details: S. cerevisiae GFP-tagged strains, 3 h
YJL056C = details: S. cerevisiae GFP-tagged strains, 3 h
YJL144W = details: S. cerevisiae GFP-tagged strains, 3 h
YJR148W = details: S. cerevisiae GFP-tagged strains, 3 h
YKL086W = details: S. cerevisiae GFP-tagged strains, 3 h
YKL103C = details: S. cerevisiae GFP-tagged strains, 3 h
YKL119C = details: S. cerevisiae GFP-tagged strains, 3 h
YKR039W = details: S. cerevisiae GFP-tagged strains, 3 h
YKR093W = details: S. cerevisiae GFP-tagged strains, 3 h
YKR094C = details: S. cerevisiae GFP-tagged strains, 3 h
YLL026W = details: S. cerevisiae GFP-tagged strains, 3 h
YLL039C = details: S. cerevisiae GFP-tagged strains, 3 h
YLR058C = details: S. cerevisiae GFP-tagged strains, 3 h
YLR109W = details: S. cerevisiae GFP-tagged strains, 3 h
YLR142W = details: S. cerevisiae GFP-tagged strains, 3 h
YLR185W = details: S. cerevisiae GFP-tagged strains, 3 h
YLR237W = details: S. cerevisiae GFP-tagged strains, 3 h
YLR287C-A = details: S. cerevisiae GFP-tagged strains, 3 h
YLR367W = details: S. cerevisiae GFP-tagged strains, 3 h
YML004C = details: S. cerevisiae GFP-tagged strains, 3 h
YML026C = details: S. cerevisiae GFP-tagged strains, 3 h
YML034W = details: S. cerevisiae GFP-tagged strains, 3 h
YML063W = details: S. cerevisiae GFP-tagged strains, 3 h
YML128C = details: S. cerevisiae GFP-tagged strains, 3 h
YMR105C = details: S. cerevisiae GFP-tagged strains, 3 h
YMR120C = details: S. cerevisiae GFP-tagged strains, 3 h
YMR251W-A = details: S. cerevisiae GFP-tagged strains, 3 h
YMR307W = details: S. cerevisiae GFP-tagged strains, 3 h
YNL015W = details: S. cerevisiae GFP-tagged strains, 3 h
YNL068C = details: S. cerevisiae GFP-tagged strains, 3 h
YNL112W = details: S. cerevisiae GFP-tagged strains, 3 h
YNL142W = details: S. cerevisiae GFP-tagged strains, 3 h
YNL214W = details: S. cerevisiae GFP-tagged strains, 3 h
YNR001C = details: S. cerevisiae GFP-tagged strains, 3 h
YOL052C-A = details: S. cerevisiae GFP-tagged strains, 3 h
YOR038C = details: S. cerevisiae GFP-tagged strains, 3 h
YOR063W = details: S. cerevisiae GFP-tagged strains, 3 h
YOR136W = details: S. cerevisiae GFP-tagged strains, 3 h
YOR173W = details: S. cerevisiae GFP-tagged strains, 3 h
YOR182C = details: S. cerevisiae GFP-tagged strains, 3 h
YOR371C = details: S. cerevisiae GFP-tagged strains, 3 h
YOR375C = details: S. cerevisiae GFP-tagged strains, 3 h
YPL111W = details: S. cerevisiae GFP-tagged strains, 3 h
YPL131W = details: S. cerevisiae GFP-tagged strains, 3 h
YPL150W = details: S. cerevisiae GFP-tagged strains, 3 h
YPL220W = details: S. cerevisiae GFP-tagged strains, 3 h
YPL265W = details: S. cerevisiae GFP-tagged strains, 3 h
YPR132W = details: S. cerevisiae GFP-tagged strains, 3 h
YPR145W = details: S. cerevisiae GFP-tagged strains, 3 h
YPR184W = details: S. cerevisiae GFP-tagged strains, 3 h

For `CNc1nc(N)c([N+](=O)[O-])c(Nc2cccc(Cl)c2)n1`, the GFP ratio to DMSO [1] was 0.961 (inactive), the GFP ratio to DMSO (YAL060W) was 0.91 (inactive) and the GFP ratio to DMSO (YAL061W) was 0.887 (inactive). The GFP ratio to DMSO (YBL087C) was 0.955 (inactive), the GFP ratio to DMSO (YBR072W) was 0.849 (inactive) and the GFP ratio to DMSO (YBR139W) was 0.935 (inactive). The GFP ratio to DMSO (YBR208C) was 1.16 (inactive), the GFP ratio to DMSO (YBR248C) was 1.01 (inactive) and the GFP ratio to DMSO (YCL064C) was 0.902 (inactive). The GFP ratio to DMSO (YCR002C) was 0.916 (inactive), the GFP ratio to DMSO (YCR005C) was 2.27 and the GFP ratio to DMSO (YDL130W) was 1.06 (inactive). The GFP ratio to DMSO (YDL204W) was 0.851 (inactive), the GFP ratio to DMSO (YDL205C) was 0.943 (inactive) and the GFP ratio to DMSO (YDR070C) was 1.14 (inactive). The GFP ratio to DMSO (YDR382W) was 1.1 (inactive), the GFP ratio to DMSO (YDR399W) was 0.977 (inactive) and the GFP ratio to DMSO (YDR453C) was 1.02 (inactive). The GFP ratio to DMSO (YEL007W) was 0.89 (inactive), the GFP ratio to DMSO (YEL060C) was 0.826 (inactive) and the GFP ratio to DMSO (YEL063C) was 1.09 (inactive). The GFP ratio to DMSO (YEL071W) was 2.01, the GFP ratio to DMSO (YER081W) was 1.21 (inactive) and the GFP ratio to DMSO (YER117W) was 0.883 (inactive). For the same molecule, the GFP ratio to DMSO (YER151C) was 0.926 (inactive), the GFP ratio to DMSO (YER156C) was 1.01 (inactive) and the GFP ratio to DMSO (YFR031C-A) was 1.02 (inactive). The GFP ratio to DMSO (YFR053C) was 0.888 (inactive), the GFP ratio to DMSO (YGL036W) was 0.781 (inactive) and the GFP ratio to DMSO (YGL062W) was 1.65. For the same molecule, the GFP ratio to DMSO (YGL135W) was 1.07 (inactive), the GFP ratio to DMSO (YGL147C) was 0.988 (inactive) and the GFP ratio to DMSO (YGR019W) was 1.02 (inactive). The GFP ratio to DMSO (YGR034W) was 1.01 (inactive), the GFP ratio to DMSO (YGR088W) was 1.07 (inactive) and the GFP ratio to DMSO (YGR121C) was 1.02 (inactive). For the same molecule, the GFP ratio to DMSO (YHL021C) was 1.11 (inactive), the GFP ratio to DMSO (YHR018C) was 0.948 (inactive) and the GFP ratio to DMSO (YHR087W) was 0.926 (inactive). For the same molecule, the GFP ratio to DMSO (YHR141C) was 1.04 (inactive), the GFP ratio to DMSO (YHR144C) was 0.837 (inactive) and the GFP ratio to DMSO (YHR203C) was 1.04 (inactive). For the same molecule, the GFP ratio to DMSO (YIL043C) was 1 (inactive), the GFP ratio to DMSO (YIL051C) was 0.981 (inactive) and the GFP ratio to DMSO (YIL052C) was 0.864 (inactive). For the same molecule, the GFP ratio to DMSO (YIL066C) was 0.868 (inactive), the GFP ratio to DMSO (YIL069C) was 1.1 (inactive) and the GFP ratio to DMSO (YJL056C) was 0.808 (inactive). For the same molecule, the GFP ratio to DMSO (YJL144W) was 0.983 (inactive), the GFP ratio to DMSO (YJR148W) was 1.71 and the GFP ratio to DMSO (YKL086W) was 0.896 (inactive). For the same molecule, the GFP ratio to DMSO (YKL103C) was 1.21 (inactive), the GFP ratio to DMSO (YKL119C) was 0.951 (inactive) and the GFP ratio to DMSO (YKR039W) was 1.35 (inactive). The GFP ratio to DMSO (YKR093W) was 1.61, the GFP ratio to DMSO (YKR094C) was 1.06 (inactive) and the GFP ratio to DMSO (YLL026W) was 1.07 (inactive). The GFP ratio to DMSO (YLL039C) was 0.725 (inactive), the GFP ratio to DMSO (YLR058C) was 0.859 (inactive) and the GFP ratio to DMSO (YLR109W) was 1.3 (inactive). For the same molecule, the GFP ratio to DMSO (YLR142W) was 0.835 (inactive), the GFP ratio to DMSO (YLR185W) was 1.04 (inactive) and the GFP ratio to DMSO (YLR237W) was 0.77 (inactive). The GFP ratio to DMSO (YLR287C-A) was 1.04 (inactive), the GFP ratio to DMSO (YLR367W) was 1.01 (inactive) and the GFP ratio to DMSO (YML004C) was 0.875 (inactive). For the same molecule, the GFP ratio to DMSO (YML026C) was 0.93 (inactive), the GFP ratio to DMSO (YML034W) was 0.842 (inactive) and the GFP ratio to DMSO (YML063W) was 1.04 (inactive). For the same molecule, the GFP ratio to DMSO (YML128C) was 0.923 (inactive), the GFP ratio to DMSO (YMR105C) was 1.17 (inactive) and the GFP ratio to DMSO (YMR120C) was 0.553. The GFP ratio to DMSO (YMR251W-A) was 1.01 (inactive), the GFP ratio to DMSO (YMR307W) was 0.996 (inactive) and the GFP ratio to DMSO (YNL015W) was 0.947 (inactive). For the same molecule, the GFP ratio to DMSO (YNL068C) was 0.946 (inactive), the GFP ratio to DMSO (YNL112W) was 1.07 (inactive) and the GFP ratio to DMSO (YNL142W) was 1.32 (inactive). The GFP ratio to DMSO (YNL214W) was 0.938 (inactive), the GFP ratio to DMSO (YNR001C) was 1.17 (inactive) and the GFP ratio to DMSO (YOL052C-A) was 1.17 (inactive). The GFP ratio to DMSO (YOR038C) was 0.974 (inactive), the GFP ratio to DMSO (YOR063W) was 1.1 (inactive) and the GFP ratio to DMSO (YOR136W) was 1.19 (inactive). For the same molecule, the GFP ratio to DMSO (YOR173W) was 0.891 (inactive), the GFP ratio to DMSO (YOR182C) was 1.02 (inactive) and the GFP ratio to DMSO (YOR371C) was 0.826 (inactive). For the same molecule, the GFP ratio to DMSO (YOR375C) was 1.17 (inactive), the GFP ratio to DMSO (YPL111W) was 1.25 (inactive) and the GFP ratio to DMSO (YPL131W) was 1.09 (inactive). The GFP ratio to DMSO (YPL150W) was 0.863 (inactive), the GFP ratio to DMSO (YPL220W) was 1.07 (inactive) and the GFP ratio to DMSO (YPL265W) was 1.62. The GFP ratio to DMSO (YPR132W) was 1.13 (inactive), the GFP ratio to DMSO (YPR145W) was 1.32 (inactive) and the GFP ratio to DMSO (YPR184W) was 0.958 (inactive).
